Test results as given in article PMC8041784, “Preference of Proteomonas sulcata anion channelrhodopsin for NO3^− revealed using a pH electrode method” (Scientific Reports, 2021).

Experiments:
GtACR1 [1] = molecular target: T1, GtACR1 (Guillardia theta, UniProt L1J207); assay: light-induced pH change of yeast cell suspension (pH electrode); assay type: cell-based; details: 300 mM NaNO3; 530 nm LED 10 mW/cm^2; initial pH about 5; about 16 °C
T1 construct: gene GUITHDRAFT_111593; 295 residues, C-terminal 8xHis tag, codon-optimised gene, expressed in Pichia pastoris SMD1168H cells; also purified in DDM
T1 sequence (L1J207 entry or part of it): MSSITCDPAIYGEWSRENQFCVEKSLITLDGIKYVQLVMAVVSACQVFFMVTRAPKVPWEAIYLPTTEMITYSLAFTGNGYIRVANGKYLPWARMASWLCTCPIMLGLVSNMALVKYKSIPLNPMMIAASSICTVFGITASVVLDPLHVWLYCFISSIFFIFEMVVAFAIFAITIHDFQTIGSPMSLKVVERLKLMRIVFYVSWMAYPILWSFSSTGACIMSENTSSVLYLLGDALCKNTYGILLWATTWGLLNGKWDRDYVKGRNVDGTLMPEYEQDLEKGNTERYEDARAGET

GtACR1 [2] = molecular target: T1, GtACR1; assay: visible absorption spectrum of purified protein; assay type: binding; details: covalent (retinal protonated Schiff base); 10 mM MOPS pH 7, 1 M NaCl, 0.05% DDM

SMILES | light-induced pH change of yeast cell suspension (pH electrode) (GtACR1 [1]) | visible absorption spectrum of purified protein (GtACR1 [2])
O=[N+]([O-])O [NO3^−] | significant transport activities were obtained for the anions except for F^− and Asp^− | 
CC1=C(/C=C/C(C)=C/C=C/C(C)=C/C=O)C(C)(C)CCC1 [all-trans-retinal] |  | Visible absorption spectrum of purified GtACR1
